Experimental data as given in patent US20210236512A1 (ZARODEX THERAPEUTICS LIMITED, priority 2018, published 2021).

What was measured:
[1] = test system: B cell subsets in bone marrow; test: Wild type mouse study: bone marrow B cell immunophenotyping by flow cytometry; details: haloperidol 1 mg/kg IP, 21 days
[2] = test system: B cell subsets and T cells in spleen; test: Wild type mouse study: spleen immunophenotyping by flow cytometry; details: haloperidol 1 mg/kg
[3] = in vivo; cited from earlier work
[4] = test system: total peripheral blood B-cells isolated from healthy donors; assay type: cell-based, human; details: clozapine 25-350 ng/ml, norclozapine 15-200 ng/ml, haloperidol 2-25 ng/ml; for Ability of differentiated ASCs to secrete antibody (total IgM/IgG ELISA): day 6 and day 9
Description: The experiment was performed from four independent donors.

## O=C(CCCN1CCC(O)(c2ccc(Cl)cc2)CC1)c1ccc(F)cc1 [Haloperidol, haloperidol]
[1]
  Early developing B cell subsets in bone marrow (overall B, pre-pro B, pro-B): no significant effect
  Effect on long-lived plasma cells in the bone marrow: no effect
[2]
  Reduction of activated T cells (B220+TCR-b+) in spleen: modestly apparent
[2]; comparator
  Impact on B cell subpopulations: not observed
[3]
  LD50: 30 mg/kg
[4]
  Functional or phenotypic maturation of activated B cells to an early PC state: no consistent inhibitory effect
  Ability of differentiated ASCs to secrete antibody (total IgM/IgG ELISA): no consistent effect

## Clc1ccc2c(c1)N=C(N1CCNCC1)c1ccccc1N2 [norclozapine]
[4]
  Functional or phenotypic maturation of activated B cells to an early PC state: no consistent inhibitory effect
  Ability of differentiated ASCs to secrete antibody (total IgM/IgG ELISA): no consistent effect
